Source: ChEMBL document CHEMBL1146165, “Structure-based de novo design, synthesis, and biological evaluation of the indole-based PPARgamma ligands (I)” (Bioorg Med Chem Lett, 2006)

Molecular target: T1, Peroxisome proliferator-activated receptor gamma (Homo sapiens, UniProt P37231)
T1 sequence (P37231 whole entry): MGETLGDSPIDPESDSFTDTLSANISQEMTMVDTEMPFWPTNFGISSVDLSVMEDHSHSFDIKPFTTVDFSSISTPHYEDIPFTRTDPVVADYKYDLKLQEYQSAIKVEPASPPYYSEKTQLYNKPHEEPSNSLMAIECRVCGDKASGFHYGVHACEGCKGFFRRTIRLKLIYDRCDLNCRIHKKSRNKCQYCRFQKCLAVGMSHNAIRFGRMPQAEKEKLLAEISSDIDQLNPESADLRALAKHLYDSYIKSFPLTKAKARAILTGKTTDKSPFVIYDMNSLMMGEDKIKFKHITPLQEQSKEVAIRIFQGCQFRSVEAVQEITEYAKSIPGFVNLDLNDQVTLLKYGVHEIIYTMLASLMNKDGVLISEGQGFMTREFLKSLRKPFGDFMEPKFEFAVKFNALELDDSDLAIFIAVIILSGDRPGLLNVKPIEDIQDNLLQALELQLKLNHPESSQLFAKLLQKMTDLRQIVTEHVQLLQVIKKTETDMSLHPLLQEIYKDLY
Assay: Binding affinity to human PPARgamma

Row | Structure (SMILES) | Kd
1 | O=C(NC(Cc1c[nH]c2cc(OCc3ccccc3)ccc12)(C(=O)O)C(=O)O)c1ccc(Cl)cc1 | 8.69 µM
2 | O=C(NC(Cc1c[nH]c2cc(OCc3ccccc3)ccc12)C(=O)O)c1ccc(Cl)cc1 (configuration not stated) | 6.86 µM
